What was measured:
[1] = system: BRD4 and JMJD6 interaction; experiment: Co-immunoprecipitation with added nucleic acid: BRD4/JMJD6 association; assay type: binding; settings: for association of Flag-BRD4WT with JMJD6 on addition of nucleic acid (in words): double-transfected Flag-BRD4 and His-JMJD6 HEK293T lysate, 1 μM ssRNA, dsDNA or ssDNA; for BRD4/JMJD6 association, endogenous and single-transfected IP, on addition of nucleic acid (in words): endogenous and single-transfected HEK293T IP experiments
Method: Incubate at 4 °C overnight.

JMJD6 = settings: biochemical study; ref [21]; cited from earlier work

| Substance | association of Flag-BRD4WT with JMJD6 on addition of nucleic acid (in words) [1] | BRD4/JMJD6 association, endogenous and single-transfected IP, on addition of nucleic acid (in words) [1] | interaction with JMJD6 (in words) (JMJD6) |
| --- | --- | --- | --- |
| ssRNA: 5′-AUACGAUGCUUUACGGUGCUAUUUUGU-3′; 27 nt (RNA, backbone not given here) | appears much stronger | no additional effect | can interact |
| ssDNA: 5′-TTTCTAGATCAGGAGCTGTCGGAAGCTATCC-3′; 31 nt (DNA, backbone not given here) | no improvements on JMJD6 interaction with BRD4 | no additional effect | – |

— article PMC5701133, “Structural Mechanism of the Oxygenase JMJD6 Recognition by the Extraterminal (ET) Domain of BRD4” (Scientific Reports, 2017)
